Laboratory results taken from ChEMBL document CHEMBL1208770, “Inhibitors of osteoclastogenesis from Lawsonia inermis leaves” (Bioorg Med Chem Lett, 2010).

Columns and labels:
[1] = Inhibition of RANKL-induced osteoclastogenesis in mouse BMDM assessed as decrease in TRAP-positive cells at 10 uM after 5 days by light microscopy; assay type: functional; conditions: 120 h
[2] = Cytotoxicity against mouse BMDM cells at 10 uM after 72 hrs by MTS assay; assay type: cell-based

SMILES | inhibition at 10 µM [1] | Activity [2]
COc1cc2cc(Oc3ccc4ccc(=O)oc4c3)c(=O)oc2cc1O[C@@H]1O[C@H](CO)[C@@H](O)[C@H](O)[C@H]1O [DAPHNORIN] | 13% | Non-toxic
O=c1ccc2ccc(O[C@@H]3O[C@H](CO)[C@@H](O)[C@H](O)[C@H]3O)c(O[C@@H]3O[C@H](CO)[C@@H](O)[C@H](O)[C@H]3O)c2o1 [DAPHNESIDE] | 20% | Non-toxic
